Laboratory results: patent US8912120B2, “Herbicidal compositions comprising 4-amino-3-chloro-5-fluoro-6-(4-chloro-2-fluoro-3-methoxyphenyl) pyridine-2-carboxylic acid or a derivative thereof and synthetic auxin herbicides” (Dow AgroSciences, LLC., priority 2012, dated 2014)
Structures can show the parent of a compound that is named as a salt. Where two headings read alike, the source gives them in different places.

Key:
ECHCG [1] = experiment: Example II: in-water applied herbicidal mixtures, transplanted paddy rice, ECHCG; type: in vivo, Echinochloa crus-galli (barnyardgrass)
Method: (§1) The prepared mud was dispensed in 365 mL aliquots into 16-ounce (oz.) non-perforated plastic pots with a surface area of 86.59 square centimeters (cm^2) leaving a headspace of 3 centimeters (cm) in each pot Mud was allowed to dry overnight prior to planting or transplanting. Rice seeds were planted in Sun Gro MetroMix® 306 planting mixture, which typically has a pH of 6.0 to 6.8 and an organic matter content of about 30 percent, in plastic plug trays. Seedlings at the second or third leaf stage of growth were transplanted into 840 mL of mud contained in 32-oz. non-perforated plastic pots with a surface area of 86.59 cm^2 4 days prior to herbicide application. […] Nutrients were added as Osmocote® (19:6:12, N:P:K^+ minor nutrients) at 2 g per 16-oz. pot and 4 g per 32-oz. pot.
(§2) Applications were made by injecting with a pipetter appropriate amounts of the application solutions, individually and sequentially, into the aqueous layer of the paddy. Control plants were treated in the same manner with the solvent blank. Applications were made so that all treated plant material received the same concentrations of acetone and crop oil concentrate.

CYPRO = experiment: Example II: in-water applied herbicidal mixtures, weed control in transplanted paddy rice (greenhouse), CYPRO; type: in vivo, Cyperus rotundus (purple nutsedge)
Method: as §1, §2

CYPIR = experiment: Example I: postemergence foliar-applied herbicidal mixtures, direct seeded rice, CYPIR; type: in vivo, Cyperus iria (rice flatsedge)
LEFCH [2] = experiment: Example I: postemergence foliar-applied herbicidal mixtures, direct seeded rice, LEFCH; type: in vivo, Leptochloa chinensis (Chinese sprangletop)
Method: (§6) The soil matrix was contained in plastic pots with a volume of 1 quart and a surface area of 83.6 square centimeters (cm^2). […] The plants were grown for 8-22 days in a greenhouse with an approximate 14 h photoperiod which was maintained at about 29° C. during the day and 26° C. during the night. Nutrients (Peters Excel® 15-5-15 5-Ca 2-Mg and iron chelate) were applied in the irrigation solution as needed and water was added on a regular basis. Supplemental lighting was provided with overhead metal halide 1000-Watt lamps as necessary. The plants were employed for testing when they reached the first through fourth true leaf stage.
(§7) Treatments consisted of the acid or esters of 4-amino-3-chloro-5-fluoro-6-(4-chloro-2-fluoro-3-methoxy-phenyl)pyridine-2-carboxylic acid (Compound A), each formulated as an SC (suspension concentrate), and various herbicidal components alone and in combination. Forms of compound A were applied on an acid equivalent basis.
(§8) For treatments comprised of formulated compounds, measured amounts of compounds were placed individually in 25 mL glass vials and diluted in a volume of 1.25% (v/v) Agri-Dex® crop oil concentrated to obtain 12× stock solutions. […] Application solutions were prepared by adding an appropriate amount of each stock solution (e.g., 1 mL) and diluted to the appropriate final concentrations with the addition of 10 mL of an aqueous mixture of 1.25% (v/v) crop oil concentrate so that the final spray solutions contained 1.25+/−0.05% (v/v) crop oil concentrate.
(§9) All stock solutions and applications solutions were visually inspected for compound compatibility prior to application. Spray solutions were applied to the plant material with an overhead Mandel track sprayer equipped with a 8002E nozzles calibrated to deliver 187 L/ha over an application area of 0.503 m^2 at a spray height of 18 to 20 inches (46 to 50 cm) above average plant canopy height. Control plants were sprayed in the same manner with the solvent blank.
(§10) The treated plants and control plants were placed in a greenhouse as described above and watered by sub-irrigation to prevent wash-off of the test compounds. After approximately 3 weeks, the condition of the test plants as compared with that of the untreated plants was determined visually and scored on a scale of 0 to 100 percent where 0 corresponds to no injury or growth inhibition and 100 corresponds to complete kill.
(§11) Colby's equation was used to determine the herbicidal effects expected from the mixtures (Colby, S. R. 1967. Calculation of the synergistic and antagonistic response of herbicide combinations. Weeds 15:20-22).
(§12) The following equation was used to calculate the expected activity of mixtures containing two active ingredients, A and B: Expected=A+B−(A×B/100)
(§13) A=observed efficacy of active ingredient A at the same concentration as used in the mixture.
(§14) B=observed efficacy of active ingredient B at the same concentration as used in the mixture.

ECHOR = experiment: Example II: in-water applied herbicidal mixtures, transplanted paddy rice, ECHOR; type: in vivo, Echinochloa oryzoides (early watergrass); settings: for pest or weed control at 70 g/ha: 70 gae/ha; for pest or weed control at 140 g/ha: 140 gae/ha
Method: as §1, §2

IPOHE = experiment: Example I: postemergence foliar-applied herbicidal mixtures, direct seeded rice, IPOHE; type: in vivo, Ipomoea hederacea (ivyleaf morningglory)
Method: as §6, §7, §8, §9, §10, §11, §12, §13, §14

LEFCH [3] = experiment: Example II: in-water applied herbicidal mixtures, transplanted paddy rice, LEFCH; type: in vivo, Leptochloa chinensis (Chinese sprangletop)
Method: as §1, §2

BRSNN = experiment: Example IV: postemergence foliar-applied herbicidal mixtures, cereal crops, BRSNN; type: in vivo, Brassica napus (volunteer canola); settings: alone, foliar, 20-22 days
Method: (§3) Seeds of the desired test plant species were planted in Sun Gro MetroMix 306 planting mixture, which typically has a pH of 6.0 to 6.8 and an organic matter content of about 30 percent, in plastic pots with a surface area of 103.2 square centimeters (cm^2). […] The plants were grown for 7-36 days in a greenhouse with an approximate 14 hour photoperiod which was maintained at about 18° C. during the day and 17° C. during the night.
(§4) Spray solutions of the second cereal herbicide and experimental compound mixtures were prepared by adding the stock solutions to the appropriate amount of dilution solution to form 12 mL spray solution with active ingredients in two- and three-way combinations.

POLCO = experiment: Example IV: postemergence foliar-applied herbicidal mixtures, cereal crops, POLCO; type: in vivo, Polygonum convolvulus (wild buckwheat); settings: alone, 140 gai/ha, foliar, 20-22 days
Method: as §3, §4

VIOTR = experiment: Example IV: postemergence foliar-applied herbicidal mixtures, cereal crops, VIOTR; type: in vivo, Viola tricolor (wild pansy); settings: alone, 140 gai/ha, foliar, 20-22 days
Method: as §3, §4

CENMA = experiment: Example V: postemergence herbicidal activity of mixtures in forage crops, CENMA; type: in vivo, Centaurea maculosa (spotted knapweed); settings: alone, foliar, approximately 21 days
Method: as §3, with “Seeds or root cuttings” for “Seeds”, “MetroMix®” for “MetroMix”, “126.6” for “103.2”, “14-60” for “7-36”, “approximately 28°” for “about 18°”, “24°” for “17°”
(§5) Spray solutions of the second herbicide or experimental compound mixtures were prepared by adding the stock solutions to the appropriate amount of dilution solution to form 12 mL spray solution with active ingredients in two-way combinations.

SINAR = experiment: Example V: postemergence herbicidal activity of mixtures in forage crops, SINAR; type: in vivo, Sinapis arvensis (wild mustard); settings: alone, foliar, approximately 21 days
Method: as §3, with “Seeds or root cuttings” for “Seeds”, “MetroMix®” for “MetroMix”, “126.6” for “103.2”, “14-60” for “7-36”, “approximately 28°” for “about 18°”, “24°” for “17°”
as §5

ECHCO = experiment: Example I: postemergence foliar-applied herbicidal mixtures, direct seeded rice, ECHCO
ECHCG [4] = experiment: Example I: postemergence foliar-applied herbicidal mixtures, direct seeded rice, ECHCG
DIGSA = experiment: Example I: postemergence foliar-applied herbicidal mixtures, direct seeded rice, DIGSA
CASOB = experiment: Example V: postemergence herbicidal activity of mixtures in forage crops (greenhouse), CASOB; type: in vivo, Cassia obtusifolia (sicklepod); settings: alone, 50 gae/ha, foliar, approximately 21 days
Method: as §3, with “Seeds or root cuttings” for “Seeds”, “MetroMix®” for “MetroMix”, “126.6” for “103.2”, “14-60” for “7-36”, “approximately 28°” for “about 18°”, “24°” for “17°”
as §5

CIRAR = experiment: Example V: postemergence herbicidal activity of mixtures in forage crops, CIRAR; type: in vivo, Cirsium arvense (Canada thistle); settings: alone, 70 gae/ha, foliar, approximately 21 days
Method: as §3, with “Seeds or root cuttings” for “Seeds”, “MetroMix®” for “MetroMix”, “126.6” for “103.2”, “14-60” for “7-36”, “approximately 28°” for “about 18°”, “24°” for “17°”
as §5

SCPMA = experiment: Example II: in-water applied herbicidal mixtures, transplanted paddy rice, SCPMA; type: in vivo; settings: 22 DAA
Method: as §1, §2

SONAR = experiment: Example V: postemergence herbicidal activity of mixtures in forage crops, SONAR; type: in vivo, Sonchus arvensis (field sowthistle); settings: alone, foliar, approximately 21 days
Method: as §3, with “Seeds or root cuttings” for “Seeds”, “MetroMix®” for “MetroMix”, “126.6” for “103.2”, “14-60” for “7-36”, “approximately 28°” for “about 18°”, “24°” for “17°”
as §5

SCPJU = experiment: Example II: in-water applied herbicidal mixtures, transplanted paddy rice, SCPJU; type: in vivo, Schoenoplectus juncoides (Japanese bulrush); settings: 25 DAA
Method: as §1, §2

[5] = 280 gai/ha, in-water application
[6] = Echinochloa oryzoides, 528 h, 22 DAA, read-out: Visual Weed Control (%) Obs
[7] = Echinochloa oryzoides, 600 h, 25 DAA, read-out: Visual Weed Control (%) Obs

Compound: COC(=O)c1nc(-c2ccc(Cl)c(OC)c2F)cc(N)c1Cl [Halauxifen-Methyl Ester, methyl 4-amino-3-chloro-6-(4-chloro-2-fluoro-3-methoxyphenyl)picolinate, reference compound]
- Visual Weed Control (%) Obs (ECHCG [1]; 20 DAA, 4.38 gae/ha): 50%
- Visual Weed Control (%) Obs (ECHCG [1]; 20 DAA, 8.75 gae/ha): 60%
- Visual Weed Control (%) Obs (CYPRO; 20 DAA, 4.38 gae/ha): 70%
- Visual Weed Control (%) Obs (CYPRO; 20 DAA, 8.75 gae/ha): 50%
- Visual Weed Control (%) - 20 DAA CYPIR Obs (CYPIR; 2.19 gae/ha): 25%
- Visual Weed Control (%) - 20 DAA CYPIR Obs (CYPIR; 4.38 gae/ha): 70%
- Visual Weed Control (%) - 20 DAA LEFCH Obs (LEFCH [2]; 2.19 gae/ha): 0%
- Visual Weed Control (%) - 20 DAA LEFCH Obs (LEFCH [2]; 4.38 gae/ha): 10%
- pest or weed control at 4.38 g/ha (ECHOR; Echinochloa oryzoides, 480 h, 20 DAA, 4.38 gae/ha, read-out: Visual Weed Control (%) Obs): 25%
- pest or weed control at 8.75 g/ha (ECHOR; Echinochloa oryzoides, 480 h, 20 DAA, 8.75 gae/ha, read-out: Visual Weed Control (%) Obs): 35%
- Visual Weed Control (%) - 20 DAA IPOHE Obs (IPOHE; 2.19 gae/ha): 0%
- Visual Weed Control (%) - 20 DAA IPOHE Obs (IPOHE; 4.38 gae/ha): 0%

Compound: CCCCC(CC)COC(=O)COc1ccc(Cl)cc1C (stereo not drawn) [MCPA EHE, 2-ethylhexyl 2-(4-chloro-2-methylphenoxy)acetate, reference compound]
- Visual Weed Control (%) Obs (LEFCH [3]; 19 DAA, 280 gai/ha): 0%
- Visual Weed Control (%) - 19 DAA LEFCH Obs (LEFCH [3]; [5]): 0%
- Visual Weed Control (%) - 19 DAA ECHOR Obs (ECHOR; [5]): 30%

Compound: Cc1cc(Cl)ccc1OCC(=O)O [MCPA, 2-(4-chloro-2-methylphenoxy)acetic acid]
- BRSNN Ob (observed value) (BRSNN; 140 gai/ha): 70%
- POLCO Ob (observed value) (POLCO): 0%
- VIOTR Ob (observed value) (VIOTR): 40%

Compound: Cc1cc(Cl)ccc1O[C@H](C)C(=O)O [Mecoprop, (2R)-2-(4-chloro-2-methylphenoxy)propanoic acid]
- BRSNN Ob (observed value) (BRSNN; 200 gai/ha): 70%

Compound: Nc1c(Cl)c(Cl)nc(C(=O)[O-])c1Cl.[K+] [Picloram K^+ Salt]
- CENMA Obs (observed value) (CENMA; 35 gae/ha): 20%
- CENMA Obs (observed value) (CENMA; 70 gae/ha): 50%
- SINAR Obs (observed value) (SINAR; 35 gae/ha): 30%
- SINAR Obs (observed value) (SINAR; 70 gae/ha): 70%

Compound: CCCCOCCOC(=O)COc1nc(Cl)c(Cl)cc1Cl [Triclopyr Butotyl Ester, 2-butoxyethyl 2-[(3,5,6-trichloro-2-pyridinyl)oxy]acetate, reference compound]
- Visual Weed Control (%) - 23 DAA ECHCO Obs (ECHCO; 70 gae/ha): 0%
- Visual Weed Control (%) - 23 DAA ECHCO Obs (ECHCO; 140 gae/ha): 0%
- Visual Weed Control (%) - 23 DAA ECHCG Obs (ECHCG [4]; 35 gae/ha): 0%
- Visual Weed Control (%) - 23 DAA ECHCG Obs (ECHCG [4]; 70 gae/ha): 0%
- Visual Weed Control (%) - 23 DAA ECHCG Obs (ECHCG [4]; 140 gae/ha): 15%
- Visual Weed Control (%) Obs (ECHCG [1]; 22 DAA, 70 gae/ha): 0%
- Visual Weed Control (%) Obs (ECHCG [1]; 22 DAA, 140 gae/ha): 0%
- Visual Weed Control (%) Obs (CYPRO; 22 DAA, 70 gae/ha): 0%
- Visual Weed Control (%) Obs (CYPRO; 22 DAA, 140 gae/ha): 40%
- CENMA Obs (observed value) (CENMA; 35 gae/ha): 30%
- CENMA Obs (observed value) (CENMA; 70 gae/ha): 45%
- Visual Weed Control (%) - 23 DAA DIGSA Obs (DIGSA; 35 gae/ha): 0%
- Visual Weed Control (%) - 23 DAA DIGSA Obs (DIGSA; 70 gae/ha): 0%
- Visual Weed Control (%) - 23 DAA DIGSA Obs (DIGSA; 140 gae/ha): 0%
- CASOB Obs (observed value) (CASOB): 18%
- CIRAR Obs (observed value) (CIRAR): 40%
- Visual Weed Control (%) Obs (SCPMA; 70 gae/ha): 50%
- Visual Weed Control (%) Obs (SCPMA; 140 gae/ha): 60%
- pest or weed control at 70 g/ha (ECHOR; [6]): 0%
- pest or weed control at 140 g/ha (ECHOR; [6]): 0%
- SONAR Obs (observed value) (SONAR; 35 gae/ha): 60%
- SONAR Obs (observed value) (SONAR; 70 gae/ha): 60%

Compound: O=C(O)COc1nc(Cl)c(Cl)cc1Cl [Triclopyr TEA Salt, 2-[(3,5,6-trichloro-2-pyridinyl)oxy]acetic acid compound with N,N-diethylethanamine, reference compound]
- Visual Weed Control (%) Obs (ECHCG [1]; 25 DAA, 70 gae/ha): 0%
- Visual Weed Control (%) Obs (ECHCG [1]; 25 DAA, 140 gae/ha): 0%
- Visual Weed Control (%) Obs (SCPJU; 70 gae/ha): 20%
- Visual Weed Control (%) Obs (SCPJU; 140 gae/ha): 30%
- Visual Weed Control (%) Obs (LEFCH [3]; 25 DAA, 70 gae/ha): 0%
- Visual Weed Control (%) Obs (LEFCH [3]; 25 DAA, 140 gae/ha): 0%
- pest or weed control at 280 g/ha (ECHOR; Echinochloa oryzoides, 456 h, 19 DAA, 280 gae/ha, read-out: Visual Weed Control (%) Obs): 35%
- pest or weed control at 70 g/ha (ECHOR; [7]): 0%
- pest or weed control at 140 g/ha (ECHOR; [7]): 0%
